For 9 compounds, GI50 and TGI results are on record in PubChem BioAssay (NCI).

Values joined by “and” are separate entries in the source; they are usually repeats but may differ in a detail not shown here. Equal entries are not always repeated.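 Tested at 5 concentrations; 48 h exposure; 96-well plates; endpoints linearly interpolated, else capped at highest concentration. GI50 marks 50% less growth. TGI marks complete inhibition of growth.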

Some test systems named below: MCF7 breast; MDA-MB-231 breast; HS 578T breast; 786-0 renal; NCI-H23 lung; HCC-2998 colon; UACC-62 melanoma; K-562 leukemia; OVCAR-5 ovarian; SN12C renal.
What all share (assay): inhibition of tumour cell growth, NCI panel, 48 h

In the case of `CC(C)=CCC(OC(=O)C=C(C)C)C1=CC(=O)c2c(O)ccc(O)c2C1=O` (stereo unspecified), the GI50 was 2.09 µM and 0.877 µM with MCF7 breast; 1.63 µM in the assay on MDA-MB-231 breast; 14.3 µM in the assay with HS 578T breast; 2.59 µM in the assay on 786-0 renal; 2.46 µM and 1.06 µM in the assay on NCI-H23 lung; 12.7 µM in the assay on HCC-2998 colon. The GI50 in the assay on UACC-62 melanoma is 1.67 µM; in the assay with K-562 leukemia, 0.0709 µM; in the assay with OVCAR-5 ovarian, 5.77 µM; in the assay with SN12C renal it was 1.9 µM. Further, the TGI with MCF7 breast is 7.86 µM and 2.93 µM; with MDA-MB-231 breast it was 3.89 µM; in the assay with HS 578T breast, 65.2 µM; in the assay on 786-0 renal, 6.86 µM; in the assay on NCI-H23 lung, 7.06 µM and 2.96 µM; in the assay on HCC-2998 colon, 26.7 µM and 6.44 µM. In addition, the TGI in the assay with UACC-62 melanoma is 3.1 µM and 2.4 µM; in the assay on K-562 leukemia it was 1.13 µM and 1.35 µM; in the assay with OVCAR-5 ovarian it was 25.6 µM and 8.83 µM; in the assay on SN12C renal, 3.94 µM and 2.92 µM.

`CC(C)(C)OC(=O)NCCCn1c2c(c3ccccc3c1=O)C(=O)c1ccccc1-2`: the GI50 is 15 µM with MCF7 breast; 12.9 µM with MDA-MB-231 breast; 15.8 µM with HS 578T breast; 15.1 µM with 786-0 renal; 13.4 µM in the assay on NCI-H23 lung; 20.4 µM in the assay on UACC-62 melanoma. Besides, the GI50 with K-562 leukemia was > 100 µM; with SN12C renal, 24.8 µM. For the same compound, the TGI was 39.4 µM in the assay on MCF7 breast; 48.8 µM in the assay on MDA-MB-231 breast; 71.6 µM in the assay with HS 578T breast; 41.6 µM in the assay on 786-0 renal; 28.8 µM in the assay with NCI-H23 lung; 53.6 µM in the assay with UACC-62 melanoma. For the same compound, the TGI in the assay with K-562 leukemia and in the assay with SN12C renal was > 100 µM in each case.

With `C1CC2CN(CCCN3CCOCC3)C(C1)O2` (stereo unspecified), the TGI in the assay on MCF7 breast, in the assay with MDA-MB-231 breast, in the assay with HS 578T breast, in the assay with 786-0 renal, in the assay on NCI-H23 lung and with UACC-62 melanoma was > 100 µM in each case. The TGI with K-562 leukemia, with OVCAR-5 ovarian and with SN12C renal was > 100 µM in each case.

As to `c1cncc(CNCc2cccnc2)c1`, the TGI in the assay on MCF7 breast, in the assay with MDA-MB-231 breast, in the assay with HS 578T breast, with 786-0 renal, in the assay with NCI-H23 lung and with UACC-62 melanoma was > 100 µM each time. Moreover, the TGI in the assay on K-562 leukemia, with OVCAR-5 ovarian and in the assay with SN12C renal was > 100 µM throughout.

With `CN(C)c1nc2ccccc2c2c1c1c(n2Cc2ccccc2)-c2ccccc2C1=O`, the GI50 in the assay with MCF7 breast was 71.4 µM; in the assay with MDA-MB-231 breast it was > 100 µM; with 786-0 renal, > 100 µM; in the assay on NCI-H23 lung, > 100 µM; in the assay on UACC-62 melanoma, > 100 µM; in the assay with K-562 leukemia, > 100 µM. Further, the GI50 in the assay with OVCAR-5 ovarian and with SN12C renal was > 100 µM throughout. Moreover, the TGI in the assay on MCF7 breast is > 100 µM; in the assay on MDA-MB-231 breast it was > 100 µM; in the assay on HS 578T breast it was 75.9 µM; in the assay on 786-0 renal, > 100 µM; in the assay with NCI-H23 lung, > 100 µM; with UACC-62 melanoma, > 100 µM. In addition, the TGI with K-562 leukemia, with OVCAR-5 ovarian and with SN12C renal was > 100 µM throughout.

Consider `C=CC(=O)Nc1cc(N2CCN(CC)CC2)ccc1Nc1cc(N(C)C(=O)Nc2c(Cl)c(OC)cc(OC)c2Cl)ncn1`, for which the GI50 with MCF7 breast is 2.7 µM; in the assay with MDA-MB-231 breast, 3.26 µM; in the assay on HS 578T breast it was 4.77 µM; in the assay on 786-0 renal it was 2.97 µM; with NCI-H23 lung, 4.36 µM; in the assay with HCC-2998 colon, 2.49 µM. Besides, the GI50 was 12.8 µM with UACC-62 melanoma, 19.4 µM in the assay with OVCAR-5 ovarian and 2.84 µM in the assay on SN12C renal. Further, the TGI in the assay with MCF7 breast was determined as 19.2 µM; in the assay with MDA-MB-231 breast, 11.5 µM; in the assay on HS 578T breast, 40.8 µM; in the assay on 786-0 renal it was 12.1 µM; in the assay with NCI-H23 lung, 20 µM; in the assay on HCC-2998 colon, 6.3 µM. Also, the results for the TGI in the assay with UACC-62 melanoma, in the assay on OVCAR-5 ovarian and in the assay on SN12C renal were 27.3 µM, 51.2 µM and 9.72 µM, respectively.

As for `C1CC[N-]CC1.CC(=N\O)/C(C)=N/O.CC(=N\O)/C(C)=N/O.OC1[CH-]CCCC1.[Co+2]`, the GI50 with MCF7 breast was 38.7 µM; with MDA-MB-231 breast, > 100 µM; in the assay on HS 578T breast it was 22.8 µM; with 786-0 renal, 61.8 µM; in the assay on UACC-62 melanoma, 18.1 µM; in the assay on K-562 leukemia, 33.4 µM. Also, the GI50 was > 100 µM in the assay with OVCAR-5 ovarian and 53.7 µM in the assay on SN12C renal. Moreover, the TGI in the assay on MCF7 breast was > 100 µM; with MDA-MB-231 breast, > 100 µM; with HS 578T breast, 63 µM; with 786-0 renal, > 100 µM; in the assay on UACC-62 melanoma, 41.2 µM; in the assay with K-562 leukemia it was > 100 µM. For the same compound, the TGI in the assay on OVCAR-5 ovarian and in the assay with SN12C renal was > 100 µM in each case.

Consider `CCCCCCCCNCCC[C@@H](C)[C@H]1CC[C@H]2[C@@H]3[C@H](OCCCN)C[C@H]4C[C@H](OCCCN)CC[C@]4(C)[C@H]3C[C@H](OCCCN)[C@]12C`, for which the GI50 in the assay on MDA-MB-231 breast is 0.983 µM; in the assay with HS 578T breast it was 2.43 µM; in the assay on 786-0 renal it was 1.21 µM; with NCI-H23 lung, 1.81 µM; in the assay with HCC-2998 colon it was 2.04 µM; in the assay with UACC-62 melanoma, 1 µM. The results for the GI50 in the assay on K-562 leukemia, in the assay with OVCAR-5 ovarian and with SN12C renal were 2.84 µM, 2.26 µM and 1.21 µM, respectively. Moreover, the TGI in the assay on MDA-MB-231 breast is 7.11 µM; in the assay on HS 578T breast it was 5.59 µM; in the assay on 786-0 renal, 3.3 µM; in the assay with NCI-H23 lung, 5.4 µM; with HCC-2998 colon it was 7 µM; in the assay on UACC-62 melanoma it was 3.84 µM. For the same compound, the TGI amounted to 11.5 µM in the assay with K-562 leukemia, 12.5 µM in the assay on OVCAR-5 ovarian and 5.68 µM in the assay on SN12C renal.

Regarding `Cc1nn2c(/C=C3/C(=O)Nc4cc(Cl)ccc43)c(-c3ccccc3)nc2s1`, the GI50 was 5.84 µM in the assay on MCF7 breast; 1.99 µM with MDA-MB-231 breast; 3.52 µM with HS 578T breast; 2.15 µM with 786-0 renal; 3.68 µM in the assay on NCI-H23 lung; > 100 µM in the assay on HCC-2998 colon. Moreover, the GI50 with K-562 leukemia was 4.27 µM; in the assay with OVCAR-5 ovarian it was > 100 µM; with SN12C renal, 2.84 µM. In addition, the TGI in the assay with MCF7 breast is > 100 µM; with MDA-MB-231 breast it was 5.62 µM; in the assay with HS 578T breast, > 100 µM; in the assay with 786-0 renal, 4.37 µM; with NCI-H23 lung, > 100 µM; in the assay on HCC-2998 colon it was > 100 µM. Besides, the TGI in the assay on K-562 leukemia is > 100 µM; in the assay with OVCAR-5 ovarian, > 100 µM; with SN12C renal, 11.1 µM.
